≈ marks a conversion by molar mass, not a printed value.
Experiments:
[1] = MICs of common antibiotics in the presence of sub-MIC levels of cationic peptides; type: cell-based; conditions: for MIC of antibiotic: No peptide
Procedure: (§1) The minimum inhibitory concentrations of (MIC) of CEME, CEMA and melittin were determined for a number of different bacteria (Table 2). Briefly, cells were grown overnight at 37° C. in LB-S (Luria broth without any salt supplement) and diluted one in 10,000 in the same medium to give concentrations of about 10^4 to 10^5 CFU/ml. The broth dilutions were set up in a 96 well microtiter plate by putting 200 μl of LB-S containing the initial concentration of antibiotic or compound in column 1 and 100 μl of the same medium in columns 2-12. The compounds were diluted by taking 100 μl of broth from column 1 and mixing it with column 2, resulting in a one in two dilution. This was continued to column 10. Finally, 10 μl of bacteria were pipetted into columns 1-11, and the plates incubated overnight at 37° C. The next day the plates were scored for growth in the wells, and the MIC determined.
The ability of the cationic peptides to work synergystically was examined by determining the MIC values for some commonly used antibiotics in the presence of sub-MIC levels of cationic peptides (Table 4). […] This may be due to the high membrane permeabilizing activity of CEMA (see below). However, the peptides did lower the MIC of polymyxin B, possibly due to the fact that they are all taken up by the same pathway and are therefore aiding each other's uptake. Of interest is the influence that melittin has on the MIC of polymyxin B, given the […] membrane permeabilizing activity of melittin.

S. typhimurium = type: cell-based; conditions: C590 versus C587
Procedure: as §1

P. AERUGINOSA H309 [2] = test: Lysozyme lysis assay (outer membrane permeabilization); type: cell-based
Procedure: Membrane permeabilization by polycationic compounds was measured in two different assays. The first assay measured membrane disruption by the ability of lysozyme to reach the periplasm and cause cell lysis. […] The uptake of lysozyme into whole cells due to membrane permeabilization by various compounds was previously described in Hancock, et al., Antimicrobial Agents and Chemo., 19:777, 1981. Overnight cultures of P. aeruginosa H309 or E. cloacae 218R1 grown in LB-S were diluted 1 in 50 in fresh medium and grown to an OD600 =0.5-0.6. The cells were harvested in a Silencer H-103N clinical centrifuge at 1800 g for 10 min, washed once with one volume of assay buffer (5 mM HEPES pH 7.2, 5 mM KCN), and resuspended in the same buffer to an OD600 of 0.5. Assays consisted of 600 μl of cells with 50 μg/ml of chicken egg white lysozyme and varying concentrations of cationic compounds. Cell lysis was measured as a decrease in the OD600 in a Perkin-Elmer dual beam spectrophotometer. Parallel experiments performed without lysozyme enabled the measurement of the lytic activity of the compounds themselves. To test whether or not permeability to lysozyme could be inhibited by divalent cations, various concentrations of MgCl2 were added to the assay after the addition of lysozyme and before the addition of the test compound.

E. coli strain DC2 = test: Acid-urea gel overlay antibacterial activity; type: cell-based; conditions: 15% acid-urea gel overlaid with agar containing ≈10^5 cells, overnight at 37° C.
Procedure: A sample of the partially purified CEME protein was electrophoresed on a 15% acid-urea gel, which separates proteins based on charge and mass (Panyim and Chalkey, Arch. Biochem Biophys., 130:337, 1969). The pH of the buffer is acidic (≈pH 5.0) and the polarity is reversed such that proteins migrate to the cathode. Therefore, the small cationic peptides run relatively quickly through the gel and thus can be easily identified. Antibacterial activity was tested as previously described (Hultmark, Eur. J. Biochem., 106:7, 1980). The gel was incubated in Mueller Hinton broth+0.2M NaPO4 pH 7.4 for 1 hr. It was overlaid with mls of the same media containing 0.6% agar and≈10^5 E. coli strain DC2, and then again with ml of the same media containing only 0.6% agar. […] Melittin is used as a positive control due to its antibacterial activity and similarity in size and PI values.

P. AERUGINOSA H309 [3] = type: cell-based; conditions: 10 μM NPN; fluorescence increase
From the text: (§2) The second assay determined membrane permeability by the ability of 1-N-phenylnaphthylamine (NPN), a small fluorescent probe, to insert itself into the membrane. Normally, very little NPN can penetrate the outer membrane, but in the presence of a membrane permeabilizer it can insert into the hydrophobic membrane resulting in an increase in fluorescence (FIGS. 7 and 8). This N-phenylnaphthylamine uptake assay was previously described by Loh, et al., Antimicrobial Agents and Chemo., 26:546, 1984. Cells were prepared exactly the same as for the lysozyme lysis assay. 1-N-phenylnaphthylamine (NPN) was dissolved in acetone at a concentration of 500 μM. NPN fluorescence was measured in a Perkin-Elmer 650-10S fluorescent spectrophotometer using excitation and emission wavelengths set to 350 nm and 420 nm respectively, with slit widths of 5 nm. The assay was standardized by adding 20 μl of NPN (final concentration of 10 μM) and 10 μl of 0.64 mg/ml of polymyxin B (final concentration of 6.4 μg/ml) into 1 ml of cells, and adjusting the resulting fluorescence to read 90% deflection (90 arbitrary units). Various compounds were tested by adding 10 μl of different concentrations to a cuvette containing 1 ml of cells and 10 μM NPN. Permeabilizing activity was designated as the total fluorescence minus the fluorescence due to NPN alone. Following the fluorescence measurement, the OD600 of the cells was taken to ensure no significant cell lysis had occurred.

P. aeruginosa H103 LPS = test: Dansyl polymyxin (DPx) displacement from purified LPS; type: binding; conditions: on a μM basis
Procedure: In this assay, DPx was incubated with LPS to saturate the binding sites and then, while polycationic compounds are titrated into the reaction, displacement of the DPx was monitored by the decrease in fluorescence (FIG. 9).
The method of Moore, et al., (Antimicrobial Agents and Chemo., 29:496, 1987), was used to test how much DPx was needed to saturate the binding sties on LPS. Briefly, 5 μl samples of 100 μM DPx were titrated sequentially into 1 ml of 3 μg/ml of LPS until a maximum fluorescence was reached. The fluorescence was measured in a Perkin-Elmer 650-10S fluorescence spectrophotometer with an excitation wavelength of 340 nm and an emission wavelength of 485 nm using slit widths of 5 nm. […] For the binding inhibition assays (Moore, et al., Antimicrobial Agents and Chemo., 29:496, 1987), 2.5 μM DPx was added to 3 μg/ml of H103 LPS in 5 mM HEPES pH 7.2. The test compounds were added 5 μl at a time and the decrease in fluorescence due to displacement of the DPx from the LPS was recorded.

E. cloacae = type: cell-based; conditions: strain 218S, Parent of 218R1
Procedure: as §1

E. coli = type: cell-based; conditions: strain UB1005, Parent of DC2
Procedure: as §1

[4] = tested on: P. aeruginosa H309 Whole Cells; type: binding; conditions: 5 mM HEPES pH 7.2, 5 mM KCN; average of at least three trials; read-out: I50 (DPx displacement from whole cells)
E. cloacae 218R1 = type: cell-based; conditions: 10 μM NPN; fluorescence increase
From the text: as §2

P. AERUGINOSA H309 [5] = type: cell-based; conditions: +80 mM Na+
Procedure: as §1, with “Briefly,” for “The minimum inhibitory concentrations of (MIC) of CEME, CEMA and melittin were determined for a number of different bacteria (Table 2). Briefly,”

Compound | MIC of antibiotic in the presence of CEMA ([1]; CEMA 0.7 μg/ml) [µg/mL] | MIC of antibiotic in the presence of CEMA ([1]; CEMA 1.4 μg/ml) [µg/mL] | MIC of antibiotic in the presence of CEME ([1]; CEME 0.6 μg/ml) [µg/mL] | MIC of antibiotic in the presence of CEME ([1]; CEME 1.2 μg/ml) [µg/mL] | MIC of antibiotic in the presence of Melittin ([1]; Melittin 2 μg/ml) [µg/mL] | MIC of antibiotic in the presence of Melittin ([1]; Melittin 4 μg/ml) [µg/mL] | MIC of antibiotic [1] [µg/mL] | Sensitivity of defensin sensitive strain C590 relative to parent (MIC change) (S. typhimurium) | Permeabilization of the outer membrane to lysozyme, compared with polymyxin B (P. AERUGINOSA H309 [2]; 50 μg/ml lysozyme, decrease in OD600) | Cell lysis in the absence of lysozyme (P. AERUGINOSA H309 [2]; increased concentrations of peptide) | Permeabilizer activity relative to gentamicin (P. AERUGINOSA H309 [2]; lysozyme lysis assay) | Antibacterial activity in overlaid gel (E. coli strain DC2) | Activity in opening up the membrane to NPN (P. AERUGINOSA H309 [3]) | Affinity for LPS compared with polymyxin B (P. aeruginosa H103 LPS) | MIC (E. cloacae) [µg/mL] | MIC (E. coli) [µg/mL] | IC50 [4] [µM] | Activity in opening up the membrane to NPN (E. cloacae 218R1) | MIC (P. AERUGINOSA H309 [5]) [µg/mL]
C[C@@H](O)[C@H]1C(=O)N2C(C(=O)O)=C(SCCN=CN)C[C@H]12 [Imipenem] | 4 | 2 | 4 | 4 | 4 | 4 | 4 |  |  |  |  |  |  |  |  |  |  |  | 
CC[C@H](C)[C@H](NC(=O)CN)C(=O)NCC(=O)N[C@@H](C)C(=O)N[C@H](C(=O)N[C@@H](CC(C)C)C(=O)N[C@@H](CCCCN)C(=O)N[C@H](C(=O)N[C@@H](CC(C)C)C(=O)N[C@H](C(=O)N[C@H](C(=O)NCC(=O)N[C@@H](CC(C)C)C(=O)N1CCC[C@H]1C(=O)N[C@@H](C)C(=O)N[C@@H](CC(C)C)C(=O)N[C@H](C(=O)N[C@@H](CO)C(=O)N[C@@H](Cc1c[nH]c2ccccc12)C(=O)N[C@H](C(=O)N[C@@H](CCCCN)C(=O)N[C@@H](CCCNC(=N)N)C(=O)N[C@@H](CCCCN)C(=O)N[C@@H](CCCNC(=N)N)C(=O)N[C@@H](CCC(N)=O)C(=O)N[C@@H](CCC(N)=O)C(N)=O)[C@@H](C)CC)[C@@H](C)CC)[C@@H](C)O)[C@@H](C)O)C(C)C)C(C)C [Melittin, melittin] |  |  |  |  |  |  |  | two-fold more sensitive | did not appear to be a good permeabilizer | cell lysis in the absence of lysozyme occurred | 5- to 10 fold | zones of clearing | less active | slightly lower affinities |  |  |  |  | 
polymyxin B | 0.5 | 0.12 | 0.5 | 0.25 | 0.5 | 0.06 | 1 | four-fold more sensitive |  |  |  |  | equally active |  | 0.5 | 0.5 | 2.04 ± 0.65 | equally active | 
CC(C)(O/N=C(\C(=O)N[C@@H]1C(=O)N2C(C(=O)[O-])=C(C[n+]3ccccc3)CS[C@H]12)c1csc(N)n1)C(=O)O [Ceftazidime, ceftazidime] | 2 | 2 | 4 | 4 | 4 | 2 | 4 | unchanged |  |  |  |  |  |  |  |  |  |  | 2 (≈ 3.66 µM)
CN(C)[C@@H]1C(O)=C(C(N)=O)C(=O)[C@@]2(O)C(O)=C3C(=O)c4c(O)cccc4[C@@](C)(O)[C@H]3C[C@@H]12 [Tetracycline] | 8 | 4 | 8 | 8 | 8 | 8 | 8 |  |  |  |  |  |  |  |  |  |  |  | 
gentamicin |  |  |  |  |  |  |  | two-fold more sensitive |  |  |  |  |  |  | 0.5 | 1 | 39.1 ± 9.67 |  | 

Reference: patent publication US5707855A (priority 1996, dated 1998)
